Measured values reported in patent US20130090364A1, “ANALOGUES FOR THE TREATMENT OR PREVENTION OF FLAVIVIRUS INFECTIONS” (priority 2010, published 2013).
Read-outs that look alike come from different tables or passages of the source.

Tests used:
[1] = test system: sub-genomic HCV replicon of genotype 1a; experiment: ELISA (NS5A protein level) in sub-genomic replicon 1a cell line W11.8; format: cell-based; conditions: for IC50: W11.8, Table 4; for IC99 (nM) (1a): Table 4
Source text: Activity Determination Using the ELISA and the Sub-Genomic Replicon 1a Cell Line
The cell line W11.8 containing the sub-genomic HCV replicon of genotype 1a is used to determine the potency of the drugs. The RNA replication in presence of different drug concentrations is indirectly measured in this cell line by the level of NS5A protein content upon drug treatment for four days. It is shown that the level of the NS5A protein correlates well with the level of HCV RNA in the replicon cell line. Cells are split twice a week in order to keep the confluence state below 85% of the culture flask surface area. The culture media used for cell passaging consists of DMEM-10% foetal bovine serum with 100 UI/mL penicillin, 100 μg/mL streptomycin, 2 mM glutamine, 1 mM sodium pyruvate, non-essential amino acids (1×) and 600 μg/mL of G418 final concentrations. Monolayer of the W11.8 cells is trypsinized and cells are counted. Cells are diluted at 50,000 cells/mL with complete DMEM without G418, then approximately 5,000 viable cells (100 μL) are plated per well in a white opaque 96-well microtiter plate. After an incubation period of 2-4 hours at 37° C. in a 5% CO2 incubator, compounds are added at various concentrations. Drugs are resuspended in DMSO at a stock concentration of 10 mM. Then, drugs are serially diluted at twice the final concentration in the same medium. One volume (100 μL) of each drug dilution is then added to each well that contains cells. A control compound is used as an internal standard for each plate assay. Sixteen wells are used as control (0% inhibition) without drug. […] Values from 100% inhibited wells were averaged and used as the background value. Cells are further incubated for four days at 37° C. in a 5% CO2 incubator. Following the incubation time of four days, the media is removed and wells are washed once with 150 μL of PBS at room temperature for five minutes. Cells are then fixed for five minutes using 150 μL per well of cold (−20° C.) fixative solution (50% methanol/50% acetone mix). Cells are then washed twice with 150 μL of PBS (phosphate buffered saline) per well, following the addition of 150 μL of blocking solution, cells are incubated for one hour at 37° C. to block non-specific sites. The blocking solution is removed and cells are washed twice with 150 μL of PBS per well and once with 150 μL of PBSTS solution (PBS/0.1% Triton X-100/0.02% SDS) per well. Then, 50 μL of mouse monoclonal anti-NS5A antibody (Santa Cruz, Cat. No. sc-52417) is added in each well, diluted 1/1,000 in the blocking solution and incubated at 4° C. overnight. Next day, media is removed and plates are washed five times with 150 μL of PBS per well with five-minute incubations at room temperature. Then 50 μL per well of peroxidase-conjugated donkey anti-mouse antibody (Jackson Immunoresearch, Cat. No. 715-036-150) diluted 1/10,000 in the blocking solution is added and incubated at room temperature for three hours on a shaker (500 rpm). Plates are washed four times with 150 μL of PBSTS solution per well and once with 150 μL of PBS. Then, substrate solution (100 μl, SuperSignal ELISA Pico Chemiluminescent Substrate, Fisher Cat. No. 37069) is added in each well and plates are incubated 60 minutes at room temperature prior to reading the luminescence (relative light units) on the Analyst HT plate reader. The percentage of inhibition at each drug concentration tested (in duplicate) is calculated.

[2] = test system: HCV (1b) RNA replication (replicon I389Luc-ubi-neo/NS3-3′/5.1); experiment: Cell-based luciferase reporter HCV (1b) RNA replication assay, Huh-ET cells; conditions: Table 4, sub-genomic replicon 1b cell line; for IC50: Hepatitis C virus
Source text: Cell-Based Luciferase Reporter HCV (Ib) RNA Replication Assay Cell Culture
Replicon cell lines Huh-5.2 are derived from the Huh-7 hepatocarcinoma cell line are maintained in culture as generally described in Krieger, N; Lohmann, V; Bartenschlager, R. Enhancement of hepatitis C virus RNA replication by cell culture-adaptive mutations. J. Virol. 2001, 75, 4614-4624. The Huh-5.2 cells contain the highly cell culture-adapted replicon I389Luc-ubi-neo/NS3-3′/5.1 construct that carries, in addition to the neomycin gene, an integrated copy to the firefly luciferase gene (Krieger, N; Lohmann, V; Bartenschlager, R. Enhancement of hepatitis C virus RNA replication by cell culture-adaptive mutations. J. Virol. 2001, 75, 4614-4624). This cell line allows measurement of HCV RNA replication and translation by measuring luciferase activity. It has been previously shown that the luciferase activity tightly follows the replicon RNA level in these cells (Krieger, N; Lohmann, V; Bartenschlager, R. Enhancement of hepatitis C virus RNA replication by cell culture-adaptive mutations. J. Virol. 2001, 75, 4614-4624). The Huh-ET cell line has the same features as those mentioned for Huh-5.2 cell line, except that ET cells are more robust and contain an adaptative mutation in the HCV NS4B gene instead of NSSA. Both cell lines are maintained in cultures at a sub-confluent level (<85%) as the level of replicon RNA is highest in actively proliferating cells. The culture media used for cell passaging consist of DMEM (Gibco BRL Laboratories, Mississauga, ON, Canada) supplemented with 10% foetal bovine serum with 1% penicilin/streptomycin, 1% glutamine, 1% sodium pyruvate, 1% non-essential amino acids, and 180 μg/ml of G418 final concentration. Cells are incubated at 37° C., in an atmosphere of 5% CO2 and passaged twice a week to maintain sub-confluence.
Approximately 3000 viable Huh-ET cells (100 μl) are plated per well in a white opaque 96-well microtiter plate. The cell culture media used for the assay is the same as described above except that it contains no G418 and no phenol red. After an incubation period of 3-4 hours at 37° C. in a 5% CO2 incubator, compounds (100 μl) are added at various concentrations. Cells are then further incubated for 4 days at 37° C. in a 5% CO2 incubator. Thereafter, the culture media is removed and cells are lysed by the addition of 95 μL of the luciferase buffer (luciferin substrate in buffered detergent). Cell lysates are incubated at room temperature and protected from direct light for at least 10 minutes. Plates are read for luciferase counts using a luminometer (Wallac MicroBeta Trilux, Perkin Elmer™, MA, USA).
Curves are fitted to data points using nonlinear regression analysis, and IC50s are interpolated from the resulting curve using GraphPad Prism software, version 2.0 (GraphPad Software Inc., San Diego, Calif., USA).

[3] = Hepatitis C virus, W11.8, read-out: EC50 (μM) (1a), Table 3

Structure (SMILES)	EC50 [1, 3]	IC50 ([1]; Hepatitis C virus)	IC99 (nM) (1a) [1]	IC50 [2]	IC99 (nM) (1b) [2]	EC50 ([1]; read-out: EC50 (μM) (1a), Table 3)
COC(=O)N[C@H](C(=O)N1CCCC1c1nc2cc(C#Cc3cc4[nH]c([C@@H]5CCCN5C(=O)[C@@H](NC(=O)OC)C(C)C)nc4s3)ccc2[nH]1)C(C)C (stereo partly shown) [Compound 1b]	0.828 µM					
COC(=O)NC(C(=O)N1C[C@@H](C)C[C@H]1c1nc2sc(-c3ccc(-c4ccc5[nH]c([C@@H]6C[C@H](C)CN6C(=O)[C@@H](NC(=O)OC)C(C)C)nc5c4)cc3)cc2[nH]1)C(C)C (stereo partly shown) [Compound 1c]		1.65 nM	11.155 nM	0.011 nM	0.207 nM	
COC(=O)N[C@H](C(=O)N1C[C@@H](C)C[C@H]1c1nc2cc(C#Cc3cc4[nH]c([C@@H]5C[C@H](C)CN5C(=O)[C@@H](NC(=O)OC)C(C)C)nc4s3)ccc2[nH]1)C(C)C [Compound 2b]	0.0403 µM					0.0377 µM
COC(=O)N[C@H](C(=O)N1C[C@@H](C)C[C@H]1c1nc2sc(-c3ccc(-c4ccc5[nH]c([C@@H]6CC[C@H](C)N6C(=O)[C@@H](NC(=O)OC)C(C)C)nc5c4)cc3)cc2[nH]1)C(C)C [Compound 2c]		0.619 nM	10.038 nM	0.005 nM	0.303 nM	
COC(=O)N[C@H](C(=O)N1CCC[C@H]1c1nc2sc(C#CC#Cc3cc4[nH]c([C@@H]5CCCN5C(=O)[C@@H](NC(=O)OC)C(C)C)nc4s3)cc2[nH]1)C(C)C [Compound 3b]	0.282 µM					
COC(=O)N[C@H](C(=O)N1C[C@@H](C)C[C@H]1c1nc2sc(C#CC#Cc3cc4[nH]c([C@@H]5C[C@H](C)CN5C(=O)[C@@H](NC(=O)OC)C(C)C)nc4s3)cc2[nH]1)C(C)C [Compound 4b]	0.184 µM					
